Measurements: ChEMBL document CHEMBL1201862, “PubChem BioAssay data set” (2004)
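Briefly, cells in 96-well plates were exposed to five compound concentrations for 48 h, and endpoints were estimated by linear interpolation. Here, GI50 denotes the concentration required for 50% inhibition of growth.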 The source made the active and inactive calls. Rule as the data show it: active = GI50 up to about 1.1 µM and inactive = higher.

Tests used:
Assay in all cases: NCI tumour cell line growth inhibition, 48 h
786-0 = system: 786-0
A498 = system: A498
EKVX = system: EKVX
HCC 2998 = system: HCC 2998
HL-60 = system: HL-60
M14 = system: M14
MCF7 = system: MCF7
MDA-MB-231 = system: MDA-MB-231
MDA-MB-435 = system: MDA-MB-435
NCI-H522 = system: NCI-H522
OVCAR-3 = system: OVCAR-3
TK-10 = system: TK-10
UACC-62 = system: UACC-62
UO-31 = system: UO-31
DU-145 = system: DU-145

Measured: GI50

O=c1c2cc(O)c(O)cc2oc2cc(O)c(C3OC(CO)C(O)C(O)C3O)c(O)c12 (stereo not drawn)
inactive: 786-0 > 100 µM | A498 > 100 µM | EKVX > 100 µM | HCC 2998 > 100 µM | HL-60 > 100 µM | M14 > 100 µM | MCF7 > 100 µM | MDA-MB-231 > 100 µM | MDA-MB-435 > 100 µM | NCI-H522 > 100 µM | OVCAR-3 > 100 µM | TK-10 > 100 µM | UACC-62 > 100 µM | UO-31 > 100 µM

CN(C)S(=O)(=O)n1ccnc1
inactive: 786-0 > 100 µM | A498 > 100 µM | EKVX > 100 µM | HCC 2998 > 100 µM | M14 > 100 µM | MCF7 > 100 µM | MDA-MB-231 > 100 µM | MDA-MB-435 > 100 µM | NCI-H522 > 100 µM | OVCAR-3 > 100 µM | TK-10 > 100 µM | UO-31 > 100 µM

O=C(O)c1cc2ccccc2c(/N=N/c2ccc(S(=O)(=O)O)cc2)c1O
inactive: 786-0 > 100 µM | DU-145 > 100 µM | EKVX > 100 µM | HCC 2998 > 100 µM | HL-60 > 100 µM | M14 > 100 µM | MCF7 > 100 µM | MDA-MB-231 > 100 µM | MDA-MB-435 > 100 µM | NCI-H522 > 100 µM | OVCAR-3 > 100 µM | TK-10 > 100 µM | UACC-62 > 100 µM | UO-31 60.3 µM

CCc1c(-c2ccc(OC)cc2)oc(OC)c(C)c1=O
inactive: 786-0 > 100 µM | A498 68.9 µM | DU-145 > 100 µM | EKVX 63.4 µM | HCC 2998 > 100 µM | M14 > 100 µM | MCF7 79.1 µM | MDA-MB-231 75.7 µM | MDA-MB-435 > 100 µM | NCI-H522 47.4 µM | OVCAR-3 62.8 µM | TK-10 > 100 µM | UACC-62 64 µM | UO-31 64.6 µM

CSC1NNC2(C(=O)N1)c1ccccc1-c1ccccc12 (stereo not drawn)
inactive: 786-0 > 10 µM | DU-145 > 10 µM | EKVX 8.32 µM | HCC 2998 > 10 µM | HL-60 > 10 µM | M14 > 10 µM | MCF7 > 10 µM | MDA-MB-231 > 10 µM | MDA-MB-435 > 10 µM | NCI-H522 > 10 µM | TK-10 > 10 µM | UACC-62 > 10 µM | UO-31 > 10 µM

CSC1=C(C#N)C(=S)N=C(N)C1C(=O)Nc1ccc(C)cc1 (stereo not drawn)
inactive: 786-0 > 100 µM | A498 68.9 µM | DU-145 > 100 µM | EKVX > 100 µM | HCC 2998 > 100 µM | HL-60 > 100 µM | M14 > 100 µM | MDA-MB-231 > 100 µM | MDA-MB-435 > 100 µM | NCI-H522 32 µM | OVCAR-3 > 100 µM | TK-10 > 100 µM | UACC-62 > 100 µM | UO-31 64 µM

O=C(O)C1CCCCC1C(=O)Nc1nc2ccccc2[nH]1 (stereo not drawn)
inactive: 786-0 > 100 µM | A498 > 100 µM | DU-145 > 100 µM | EKVX 63 µM | M14 > 100 µM | MCF7 > 100 µM | MDA-MB-231 > 100 µM | MDA-MB-435 > 100 µM | NCI-H522 > 100 µM | OVCAR-3 > 100 µM | TK-10 > 100 µM | UACC-62 > 100 µM | UO-31 > 100 µM

CC(NC(=O)OC(C)(C)C)C(=O)NC1CCCC1 (stereo not drawn)
inactive: 786-0 > 100 µM | A498 > 100 µM | DU-145 > 100 µM | EKVX > 100 µM | HCC 2998 > 100 µM | HL-60 > 100 µM | M14 > 100 µM | MCF7 > 100 µM | MDA-MB-435 > 100 µM | NCI-H522 > 100 µM | OVCAR-3 > 100 µM | TK-10 > 100 µM | UO-31 > 100 µM

O=[N+]([O-])C(=C(Nc1ccccc1)Nc1ccccc1)C(Cl)=C(Cl)Cl
inactive: 786-0 15.8 µM | A498 9.93 µM | DU-145 17.5 µM | EKVX 15.7 µM | HCC 2998 19.5 µM | M14 18.2 µM | MCF7 12 µM | MDA-MB-231 17.3 µM | MDA-MB-435 15.3 µM | NCI-H522 21.4 µM | OVCAR-3 16.5 µM | TK-10 22.6 µM | UACC-62 15.6 µM | UO-31 24.5 µM

COc1cccc(CN(C(=O)/C=C\Sc2ccccc2)C(C)(C)C)c1
inactive: 786-0 > 100 µM | A498 > 100 µM | DU-145 > 100 µM | EKVX 90.6 µM | HCC 2998 > 100 µM | HL-60 20.5 µM | M14 84.7 µM | MCF7 81.3 µM | MDA-MB-231 > 100 µM | MDA-MB-435 86.5 µM | OVCAR-3 52.5 µM | TK-10 > 100 µM | UACC-62 > 100 µM | UO-31 48.3 µM

CN(C)c1ccc(/N=N/c2ccncc2)cc1
inactive: 786-0 > 100 µM | A498 > 100 µM | DU-145 > 100 µM | EKVX 18.5 µM | HCC 2998 22.6 µM | HL-60 > 100 µM | M14 > 100 µM | MCF7 40.8 µM | MDA-MB-231 > 100 µM | MDA-MB-435 28.8 µM | OVCAR-3 > 100 µM | TK-10 > 100 µM | UACC-62 87.5 µM | UO-31 > 100 µM

Cc1ccc(/N=N/C(=N\c2ccc(F)cc2)c2ccc(N(CCC#N)CCC#N)cc2)cc1
inactive: 786-0 > 100 µM | A498 > 100 µM | DU-145 > 100 µM | EKVX 99.5 µM | HCC 2998 46.9 µM | M14 > 100 µM | MCF7 42.5 µM | MDA-MB-231 > 100 µM | MDA-MB-435 82.2 µM | NCI-H522 19.2 µM | OVCAR-3 86.3 µM | TK-10 > 100 µM | UACC-62 > 100 µM | UO-31 > 100 µM

CCOC(=O)N1C(=S)C(C(=O)OC)(C(=O)OC)N=C1C
inactive: 786-0 > 100 µM | A498 > 100 µM | DU-145 > 100 µM | EKVX > 100 µM | HCC 2998 > 100 µM | HL-60 > 100 µM | M14 > 100 µM | MCF7 > 100 µM | MDA-MB-435 > 100 µM | OVCAR-3 > 100 µM | TK-10 > 100 µM | UACC-62 > 100 µM | UO-31 > 100 µM

CC(C)c1ccc(/C=C2\CSCC3=C2N=C2SCC(=O)N2C3c2ccc(C(C)C)cc2)cc1 (stereo not drawn)
inactive: 786-0 > 100 µM | DU-145 > 100 µM | EKVX > 100 µM | HCC 2998 > 100 µM | HL-60 > 100 µM | M14 > 100 µM | MCF7 > 100 µM | MDA-MB-231 > 100 µM | MDA-MB-435 > 100 µM | OVCAR-3 > 100 µM | TK-10 > 100 µM | UACC-62 > 100 µM | UO-31 40.4 µM

C/C(=N\NC(=O)Nc1ccccc1Cl)c1ccc(O)cc1
inactive: 786-0 > 100 µM | DU-145 > 100 µM | EKVX > 100 µM | HCC 2998 > 100 µM | HL-60 > 100 µM | M14 > 100 µM | MCF7 > 100 µM | MDA-MB-231 > 100 µM | MDA-MB-435 > 100 µM | NCI-H522 > 100 µM | OVCAR-3 > 100 µM | TK-10 > 100 µM | UACC-62 > 100 µM | UO-31 > 100 µM

C/C(=N/NC(=S)NCCc1ccccn1)c1cnccn1
inactive: 786-0 14.6 µM | DU-145 17.8 µM | EKVX 10.9 µM | HCC 2998 40.4 µM | M14 24 µM | MDA-MB-231 26.2 µM | MDA-MB-435 53.3 µM | NCI-H522 3.6 µM | OVCAR-3 32.1 µM | TK-10 17 µM | UACC-62 18.3 µM | UO-31 16.6 µM

CC(C)=CC1C(C(=O)OCc2cc3c(cc2Cl)OCO3)C1(C)C (stereo not drawn)
inactive: 786-0 28.4 µM | A498 26.9 µM | DU-145 > 100 µM | EKVX 13.5 µM | HCC 2998 17 µM | M14 36.7 µM | MDA-MB-231 13.5 µM | MDA-MB-435 33.7 µM | NCI-H522 15.1 µM | OVCAR-3 20.6 µM | TK-10 63.2 µM | UACC-62 43.1 µM | UO-31 46.1 µM

CN(C(=O)CCC(=O)O)c1ccccc1C(=O)O
inactive: 786-0 > 100 µM | A498 > 100 µM | DU-145 > 100 µM | EKVX > 100 µM | HCC 2998 > 100 µM | HL-60 > 100 µM | M14 > 100 µM | MCF7 > 100 µM | MDA-MB-231 > 100 µM | MDA-MB-435 > 100 µM | OVCAR-3 > 100 µM | TK-10 > 100 µM | UACC-62 > 100 µM | UO-31 > 100 µM

O=C1NC(=O)[C@H]2C3C=CC([C@@H]12)[C@@H]1C(=O)NC(=O)[C@H]31
inactive: 786-0 > 100 µM | DU-145 > 100 µM | EKVX > 100 µM | HCC 2998 > 100 µM | HL-60 > 100 µM | M14 > 100 µM | MCF7 97.1 µM | MDA-MB-231 > 100 µM | MDA-MB-435 > 100 µM | NCI-H522 > 100 µM | OVCAR-3 > 100 µM | TK-10 > 100 µM | UACC-62 > 100 µM | UO-31 > 100 µM

Oc1cc(-c2ccc3ccccc3c2)nc2ncc(Cl)cc12
inactive: 786-0 2.84 µM | A498 12.1 µM | DU-145 11.4 µM | EKVX 14.5 µM | HCC 2998 10.2 µM | M14 8.17 µM | MCF7 2.44 µM | MDA-MB-231 15.6 µM | NCI-H522 4.32 µM | TK-10 12.7 µM | UACC-62 3.66 µM | UO-31 14.4 µM
